Laboratory results as given in PubChem BioAssay AID328 (DTP/NCI, 2004).
Several values for one entry are separate records, joined by “and”; a condition that tells them apart may be missing. Identical values can stand only once. Toxic doses and inconclusive results are not listed.

System: BDF1 mice, P388 leukemia ip, median survival T/C
Assay: NCI In Vivo Anticancer Drug Screen. Data for tumor model P388 Leukemia (intraperitoneal) in B6D2F1 (BDF1) mice
Conditions: endpoint: median survival time, higher = longer survival
In short: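 Survival ratio, drug arm over vehicle arm, in mice with a transplanted tumour.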

[1] = dose: 100.0 mg/kg/injection, schedule: Q04DX003 (ip), vehicle: saline with Tween-80
[2] = dose: 200.0 mg/kg/injection, schedule: Q04DX003 (ip), vehicle: saline with Tween-80
[3] = dose: 50.0 mg/kg/injection, schedule: Q01DX009 (ip), vehicle: saline
[4] = dose: 100.0 mg/kg/injection, schedule: Q01DX009 (ip), vehicle: saline
[5] = dose: 100.0 mg/kg/injection, schedule: Q04DX003 (ip), vehicle: saline
[6] = dose: 200.0 mg/kg/injection, schedule: Q04DX003 (ip), vehicle: saline

For O=NN(CCCl)C(=O)N[C@H]1CCCC[C@H]1Cl, which T/C (dose: 1.0 mg/kg/injection, schedule: Q01DX009 (ip), vehicle: Klucel (hydroxypropylcellulose) (HPC)) is on record?
Its T/C is 104 % of control.

What about the T/C (dose: 1.0 mg/kg/injection, schedule: Q04DX003 (ip), vehicle: Klucel (hydroxypropylcellulose) (HPC)) of the same compound?
Its T/C is 104 % of control.

And the T/C (dose: 1.5 mg/kg/injection, schedule: Q01DX009 (ip), vehicle: Klucel (hydroxypropylcellulose) (HPC))?
The T/C was 116 % of control.

What about the T/C (dose: 2.0 mg/kg/injection, schedule: Q04DX003 (ip), vehicle: Klucel (hydroxypropylcellulose) (HPC)) of the same compound?
The T/C was 104 % of control.

And the T/C (dose: 2.3 mg/kg/injection, schedule: Q01DX009 (ip), vehicle: Klucel (hydroxypropylcellulose) (HPC))?
Its T/C is 104 % of control.

And the T/C (dose: 4.0 mg/kg/injection, schedule: Q04DX003 (ip), vehicle: Klucel (hydroxypropylcellulose) (HPC))?
Its T/C is 100 % of control.

What about the T/C (dose: 5.5 mg/kg/injection, schedule: Q01DX009 (ip), vehicle: Klucel (hydroxypropylcellulose) (HPC)) of the same compound?
The T/C was 153 % of control and 194 % of control.

And the T/C (dose: 8.5 mg/kg/injection, schedule: Q01DX009 (ip), vehicle: Klucel (hydroxypropylcellulose) (HPC))?
The T/C was 159 % of control and 169 % of control and 216 % of control.

And the T/C (dose: 8.5 mg/kg/injection, schedule: Q04DX003 (ip), vehicle: Klucel (hydroxypropylcellulose) (HPC))?
The T/C was 165 % of control.

What about the T/C (dose: 13.0 mg/kg/injection, schedule: Q01DX009 (ip), vehicle: Klucel (hydroxypropylcellulose) (HPC)) of the same compound?
Its T/C is 305 % of control and 192 % of control.

And the T/C (dose: 13.0 mg/kg/injection, schedule: Q04DX003 (ip), vehicle: Klucel (hydroxypropylcellulose) (HPC))?
The T/C was 235 % of control.

And the T/C (dose: 20.0 mg/kg/injection, schedule: Q01DX009 (ip), vehicle: Klucel (hydroxypropylcellulose) (HPC))?
The T/C was 250 % of control and 333 % of control and 200 % of control.

What about the T/C (dose: 20.0 mg/kg/injection, schedule: Q04DX003 (ip), vehicle: Klucel (hydroxypropylcellulose) (HPC)) of the same compound?
The T/C was 270 % of control and 300 % of control.

What about the T/C (dose: 30.0 mg/kg/injection, schedule: Q01DX009 (ip), vehicle: Klucel (hydroxypropylcellulose) (HPC)) of the same compound?
Its T/C is 120 % of control.

What about the T/C (dose: 30.0 mg/kg/injection, schedule: Q04DX003 (ip), vehicle: Klucel (hydroxypropylcellulose) (HPC)) of the same compound?
The T/C was 300 % of control.

What about the T/C (dose: 44.0 mg/kg/injection, schedule: Q01DX009 (ip), vehicle: Klucel (hydroxypropylcellulose) (HPC)) of the same compound?
Its T/C is 104 % of control.

What about the T/C (dose: 44.0 mg/kg/injection, schedule: Q04DX003 (ip), vehicle: Klucel (hydroxypropylcellulose) (HPC)) of the same compound?
The T/C was 300 % of control.

What about the T/C (dose: 67.0 mg/kg/injection, schedule: Q04DX003 (ip), vehicle: Klucel (hydroxypropylcellulose) (HPC)) of the same compound?
The T/C was 300 % of control.

With Cc1cc(Br)c2ccccc2c1N(CC(=O)O)S(=O)(=O)c1ccccc1 as the compound, how does the T/C (dose: 100.0 mg/kg/injection, schedule: Q01DX001 (ip), vehicle: saline with Tween-80) read?
The T/C was 100 % of control.

What about the T/C (dose: 200.0 mg/kg/injection, schedule: Q01DX001 (ip), vehicle: saline with Tween-80) of the same compound?
Its T/C is 109 % of control.

And the T/C (dose: 400.0 mg/kg/injection, schedule: Q01DX001 (ip), vehicle: saline with Tween-80)?
The T/C was 109 % of control.

Which results are given for NC(=O)Nc1cc(NC(N)=O)cc(N(CCO)CCO)c1?
T/C (dose: 50.0 mg/kg/injection, schedule: Q01DX009 (ip), vehicle: water): 94 % of control; T/C (dose: 100.0 mg/kg/injection, schedule: Q01DX009 (ip), vehicle: water): 102 % of control; T/C (dose: 100.0 mg/kg/injection, schedule: Q04DX003 (ip), vehicle: water): 118 % of control; T/C (dose: 200.0 mg/kg/injection, schedule: Q01DX009 (ip), vehicle: water): 96 % of control; T/C (dose: 200.0 mg/kg/injection, schedule: Q04DX003 (ip), vehicle: water): 102 % of control; T/C (dose: 400.0 mg/kg/injection, schedule: Q01DX009 (ip), vehicle: water): 100 % of control; T/C (dose: 400.0 mg/kg/injection, schedule: Q04DX003 (ip), vehicle: water): 102 % of control

Which results are given for Cc1nc2ccccc2c(=O)n1C(C)(C)CCl?
T/C [1]: 100 % of control; T/C [2]: 109 % of control

For CCCCCCCCCCCC(=O)CCCC, which T/C (dose: 100.0 mg/kg/injection, schedule: Q01DX009 (ip), vehicle: other) is on record?
Its T/C is 110 % of control.

And the T/C (dose: 200.0 mg/kg/injection, schedule: Q01DX009 (ip), vehicle: other)?
Its T/C is 90 % of control.

CCOCCOCCOCCCNCCCN1CC1 was tested. Which T/C [3] did it give?
The T/C was 187 % of control.

And the T/C [4]?
Its T/C is 95 % of control.

What about the T/C [5] of the same compound?
Its T/C is 177 % of control.

What about the T/C [6] of the same compound?
The T/C was 190 % of control.

Nc1nc(N)c(Cl)c(Nc2cccc(Cl)c2)n1 was tested. Which T/C (dose: 50.0 mg/kg/injection, schedule: Q01DX009 (ip), vehicle: saline with Tween-80) did it give?
Its T/C is 102 % of control.

What about the T/C (dose: 100.0 mg/kg/injection, schedule: Q01DX009 (ip), vehicle: saline with Tween-80) of the same compound?
The T/C was 103 % of control.

What about the T/C (dose: 200.0 mg/kg/injection, schedule: Q01DX009 (ip), vehicle: saline with Tween-80) of the same compound?
Its T/C is 105 % of control.

For CCC(C)(C)C(=O)O, which T/C [3] is on record?
Its T/C is 100 % of control.

What about the T/C (dose: 50.0 mg/kg/injection, schedule: Q04DX003 (ip), vehicle: saline) of the same compound?
The T/C was 100 % of control.

And the T/C [4]?
Its T/C is 105 % of control.

What about the T/C [1] of the same compound?
Its T/C is 105 % of control.

What about the T/C [5] of the same compound?
The T/C was 104 % of control.

What about the T/C (dose: 200.0 mg/kg/injection, schedule: Q01DX009 (ip), vehicle: saline) of the same compound?
The T/C was 110 % of control.

What about the T/C [2] of the same compound?
The T/C was 110 % of control.

And the T/C [6]?
Its T/C is 100 % of control.

What about the T/C (dose: 400.0 mg/kg/injection, schedule: Q04DX003 (ip), vehicle: saline with Tween-80) of the same compound?
The T/C was 100 % of control.
